Results reported in US20100075965A1, “PI3 KINASE INHIBITORS AND METHODS OF THEIR USE” (Novartis AG, priority 2006, published 2010).

Assays:
[1] = system: pSer473-Akt in A2780 cells; assay: pSer473 Akt assay to monitor PI3K pathway in A2780 cells (MSD); assay type: cell-based; details: Homo sapiens; A2780 cells; read-out: A2780 pAKT 473 EC50
Procedure, shortened: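 A2780 cells (15,000/well, adhered overnight) treated 1 h at 37 °C with compound, then lysed; pSer473-Akt and total Akt measured by MSD electrochemiluminescence. The pSer473/total Akt ratio gave percent inhibition versus DMSO, from which EC50 was derived.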

PI3 K Alpha = PI3 K Alpha (Homo sapiens, UniProt P42336); assay: PI3 kinase phosphorylation assays (homogenous solution phase, one step solid phase, ATP depletion/KinaseGlo); assay type: biochemical; details: read-out: PI3K Alpha IC50
Sequence of PI3 K Alpha (P42336 whole entry): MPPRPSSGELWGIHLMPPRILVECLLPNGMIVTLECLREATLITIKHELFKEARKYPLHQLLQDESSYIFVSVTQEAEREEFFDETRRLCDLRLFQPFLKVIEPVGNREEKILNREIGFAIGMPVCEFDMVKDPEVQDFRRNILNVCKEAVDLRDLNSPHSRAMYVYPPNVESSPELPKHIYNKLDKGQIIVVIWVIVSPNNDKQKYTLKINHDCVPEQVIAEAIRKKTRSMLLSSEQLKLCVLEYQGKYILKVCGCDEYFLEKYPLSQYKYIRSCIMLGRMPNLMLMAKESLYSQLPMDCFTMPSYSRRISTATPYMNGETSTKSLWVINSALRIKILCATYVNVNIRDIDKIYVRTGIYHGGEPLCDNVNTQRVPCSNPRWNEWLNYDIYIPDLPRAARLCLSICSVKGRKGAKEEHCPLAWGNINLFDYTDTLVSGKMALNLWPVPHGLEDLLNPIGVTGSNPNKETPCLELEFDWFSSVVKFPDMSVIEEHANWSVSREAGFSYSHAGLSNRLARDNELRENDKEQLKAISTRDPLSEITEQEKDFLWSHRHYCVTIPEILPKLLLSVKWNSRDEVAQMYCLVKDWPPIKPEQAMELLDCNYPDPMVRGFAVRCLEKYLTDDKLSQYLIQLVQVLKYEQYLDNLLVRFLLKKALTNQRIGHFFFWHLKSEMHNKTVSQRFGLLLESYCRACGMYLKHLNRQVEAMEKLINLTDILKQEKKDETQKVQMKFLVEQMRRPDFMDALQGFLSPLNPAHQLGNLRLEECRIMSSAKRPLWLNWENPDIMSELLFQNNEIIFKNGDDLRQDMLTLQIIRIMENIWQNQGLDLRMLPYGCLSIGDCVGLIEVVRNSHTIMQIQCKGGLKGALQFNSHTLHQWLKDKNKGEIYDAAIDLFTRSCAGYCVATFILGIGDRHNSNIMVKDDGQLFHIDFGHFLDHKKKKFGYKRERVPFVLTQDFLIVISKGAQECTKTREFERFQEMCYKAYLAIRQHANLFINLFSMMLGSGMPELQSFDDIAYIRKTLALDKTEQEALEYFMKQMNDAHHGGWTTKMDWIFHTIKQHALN
Sequence of PI3 K Alpha (P27986 whole entry partner): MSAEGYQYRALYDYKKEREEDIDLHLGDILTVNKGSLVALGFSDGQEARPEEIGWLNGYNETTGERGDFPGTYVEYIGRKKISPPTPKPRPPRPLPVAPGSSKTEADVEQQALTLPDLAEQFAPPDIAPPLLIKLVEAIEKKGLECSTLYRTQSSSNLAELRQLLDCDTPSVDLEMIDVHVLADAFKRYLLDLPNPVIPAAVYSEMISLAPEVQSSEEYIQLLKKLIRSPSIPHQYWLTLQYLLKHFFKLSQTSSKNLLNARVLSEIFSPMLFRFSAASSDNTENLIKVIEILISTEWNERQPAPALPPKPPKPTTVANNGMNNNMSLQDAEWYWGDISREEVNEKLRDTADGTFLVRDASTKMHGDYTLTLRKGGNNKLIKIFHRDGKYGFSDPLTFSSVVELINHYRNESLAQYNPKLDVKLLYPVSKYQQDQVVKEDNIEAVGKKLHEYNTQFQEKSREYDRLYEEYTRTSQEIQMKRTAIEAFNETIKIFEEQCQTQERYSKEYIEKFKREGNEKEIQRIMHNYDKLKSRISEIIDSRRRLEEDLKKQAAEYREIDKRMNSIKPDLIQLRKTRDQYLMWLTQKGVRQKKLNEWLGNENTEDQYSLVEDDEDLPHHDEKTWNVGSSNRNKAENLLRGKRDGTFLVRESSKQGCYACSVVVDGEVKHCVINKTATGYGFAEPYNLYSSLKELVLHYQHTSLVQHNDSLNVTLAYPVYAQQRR

A2780 cells = assay: Viability assay in A2780 (Cell Titer Glo); assay type: cell-based, human; details: Homo sapiens; A2780 cells; read-out: A2780 Cell prolif. EC50
Procedure, shortened: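 A2780 cells (1,000/well, DMEM + 10% FBS) were exposed to 3-fold serial dilutions of compound for 72 hrs at 37° C, 5% CO2. Viable cells were read by Cell Titer Glo luminescence, in duplicate, and EC50 values were derived from the curves.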

EC50 [1] [nM]	IC50 (PI3 K Alpha) [nM]	EC50 (A2780 cells) [µM]	SMILES
< 1000	< 1000	< 10	CC(=O)Nc1cn2cc(-c3cnc(N)c(-c4ccccc4)n3)ccc2n1 [Example 113, N-(6-(5-amino-6-phenylpyrazin-2-yl)imidazo[1,2-a]pyridin-2-yl)acetamide]
< 1000	< 1000	< 10	CC(=O)Nc1cn2cc(-c3cnc(N)c(-c4ccccc4F)c3)ccc2n1 [Example 114, N-(6-(6-amino-5-(2-fluorophenyl)pyridin-3-yl)imidazo[1,2-a]pyridin-2-yl)acetamide]
< 1000	< 1000	< 10	CC(=O)Nc1cn2nc(-c3cnc(N)c(-c4ccccc4Oc4ccccc4)c3)ccc2n1 [Example 115, N-(6-(6-amino-5-(2-phenoxyphenyl)pyridin-3-yl)imidazo[1,2-b]pyridazin-2-yl)acetamide]
< 1000	< 1000	< 10	Nc1ncc(-c2ccc3nc(NC(=O)C4CNC4)cn3n2)cc1C(F)(F)F [Example 116, N-(6-(6-amino-5-(trifluoromethyl)pyridin-3-yl)imidazo[1,2 b]pyridazin-2-yl)azetidine-3-carboxamide]
< 1000	< 1000	< 10	COc1ccc(C#Cc2c(NC(C)=O)nc3ccc(-c4cnc(N)c(C(F)(F)F)c4)cn23)cc1 [Example 117, N-(6-(6-amino-5-(trifluoromethyl)pyridin-3-yl)-3-((4-methoxyphenyl)ethynyl)imidazo[1,2-a]pyridin-2-yl)acetamide]
< 1000	< 1000	< 10	CCOCC(=O)Nc1cn2nc(-c3cnc(N)c(C(F)(F)F)c3)ccc2n1 [Example 118, N-(6-(6-amino-5-(trifluoromethyl)pyridin-3-yl)imidazo[1,2-b]pyridazin-2-yl)-2-ethoxyacetamide]
< 1000	< 1000	< 10	CC(=O)Nc1cn2cc(-c3cnc(N)c(-c4ccccc4C(F)(F)F)c3)ccc2n1 [Example 120, N-(6-(6-amino-5-(2-(trifluoromethyl)phenyl)pyridin-3-yl)imidazo[1,2-a]pyridin-2-yl)acetamide]
< 1000	< 1000	< 10	CC(=O)Nc1cn2cc(-c3cnc(N)c(-c4ccccc4OC(F)(F)F)c3)ccc2n1 [Example 121, N-(6-(6-amino-5-(2-(trifluoromethoxy)phenyl)pyridin-3-yl)imidazo[1,2-a]pyridin-2-yl)acetamide]
< 1000	< 1000	< 10	CNCC(=O)Nc1cn2cc(-c3cnc(N)c(OCCOC)n3)ccc2n1 [Example 122, N-(6-(5-amino-6-(2-methoxyethoxy)pyrazin-2-yl)imidazo[1,2-a]pyridin-2-yl)-2-(methylamino) acetamide]
< 1000	< 1000	< 10	Nc1ncc(-c2ccc3nc(NC(=O)c4cccnc4)cn3c2)cc1C(F)(F)F [Example 123, N-(6-(6-amino-5-(trifluoromethyl)pyridin-3-yl)imidazo[1,2-a]pyridin-2-yl)nicotinamide]
< 1000	< 1000	< 10	CC(=O)Nc1cn2cc(-c3cnc(N)c(-c4ccccc4)c3)ccc2n1 [Example 124, N-(6-(6-amino-5-phenylpyridin-3-yl)imidazo[1,2-a]pyridin-2-yl)acetamide]
< 1000	< 1000	< 10	Nc1ncc(-c2ccc3nc(NC(=O)c4ccc(N5CCNCC5)nc4)cn3c2)cc1C(F)(F)F [Example 126, N-(6-(6-amino-5-(trifluoromethyl)pyridin-3-yl)imidazo[1,2-a]pyridin-2-yl)-6-(piperazin-1-yl)nicotinamide]
< 1000	< 1000	< 10	CC(=O)Nc1nc2ccc(-c3cnc(N)c(C(F)(F)F)c3)cn2c1C#Cc1ccc(C)cc1 [Example 127, N-(6-(6-amino-5-(trifluoromethyl)pyridin-3-yl)-3-(p-tolylethynyl)imidazo[1,2-a]pyridin-2-yl)acetamide]
< 1000	< 1000	< 10	CC(=O)Nc1cn2cc(-c3cnc(N)c(OC4CN(C(=O)c5ccccc5)C4)n3)ccc2n1 [Example 128, N-(6-(5-amino-6-(1-benzoylazetidin-3-yloxy)pyrazin-2-yl)imidazo[1,2-a]pyridin-2-yl)acetamide]
< 1000	< 1000	< 10	COc1nc(-c2ccc3nc(NC(C)=O)cn3n2)cnc1N [Example 130, N-(6-(5-amino-6-methoxypyrazin-2-yl)imidazo[1,2-b]pyridazin-2-yl)acetamide]
< 1000	< 1000	< 10	CC(=O)Nc1cn2cc(-c3cnc(N)c(N4CCN(C)CC4)n3)ccc2n1 [Example 131, N-(6-(5-amino-6-(4-methylpiperazin-1-yl)pyrazin-2-yl)imidazo[1,2-a]pyridin-2-yl)acetamide]

EC50 [1] [nM]	IC50 (PI3 K Alpha) [nM]	EC50 (A2780 cells) [µM]	SMILES
< 1000	< 1000	< 10	COC(=O)CCCC(=O)Nc1cn2nc(-c3cnc(N)c(C(F)(F)F)c3)ccc2n1 [Example 132, methyl 5-(6-(6-amino-5-(trifluoromethyl)pyridin-3-yl)imidazo[1,2-b]pyridazin-2-ylamino)-5-oxopentanoate]
< 1000	< 1000	< 10	Nc1ncc(-c2ccc3nc(NC(=O)CN4CCCCC4)cn3n2)cc1C(F)(F)F [Example 133, N-(6-(6-amino-5-(trifluoromethyl)pyridin-3-yl)imidazo[1,2-b]pyridazin-2-yl)-2-(piperidin-1-yl)acetamide]
< 1000	< 1000	< 10	CC(C)(C)OC(=O)NCC(=O)Nc1cn2nc(-c3cnc(N)c(C(F)(F)F)c3)ccc2n1 [Example 135, tert-butyl 2-(6-(6-amino-5-(trifluoromethyl)pyridin-3-yl)imidazo[1,2-b]pyridazin-2-ylamino)-2-oxoethylcarbamate]
< 25000	< 1000	< 25	CC(=O)Nc1cn2nc(-c3cnc(N)c(C(=O)O)c3)ccc2n1 [Example 136, 5-(2-acetamido-imidazo[1,2-b]pyridazin-6-yl)-2-aminonicotinic acid]
< 1000	< 1000	< 10	CCOc1nc(-c2ccc3nc(NC(C)=O)cn3n2)cnc1N [Example 184, N-(6-(5-amino-6-ethoxypyrazin-2-yl)imidazo[1,2-b]pyridazin-2-yl)acetamide]
< 1000	< 1000	< 10	Nc1ncc(-c2ccc3nc(NC(=O)c4ccc(-n5ccnc5)cc4)cn3c2)cc1C(F)(F)F [Example 187, N-(6-(6-amino-5-(trifluoromethyl)pyridin-3-yl)imidazo[1,2-a]pyridin-2-yl)-4-(1H-imidazol-1-yl)benzamide]
< 1000	< 1000	< 10	CC(=O)Nc1cn2cc(-c3cnc(N)c(Cl)c3)ccc2n1 [Example 188, N-(6-(6-amino-5-chloropyridin-3-yl)imidazo[1,2-a]pyridin-2-yl)acetamide]
< 1000	< 1000	< 10	CC(=O)Nc1cn2cc(-c3cnc(N)c(C(F)(F)F)c3)cc(F)c2n1 [Example 190, N-(6-(6-amino-5-(trifluoromethyl)pyridin-3-yl)-8-fluoroimidazo [1,2-a]pyridin-2-yl)acetamide]
< 10000	< 1000	< 10	C/C=C/c1c(NC(C)=O)nc2ccc(-c3cnc(N)c(C(F)(F)F)c3)cn12 [Example 193, (E)-N-(6-(6-amino-5-(trifluoromethyl)pyridin-3-yl)-3-(prop-1-enyl)imidazo[1,2-a]pyridin-2-yl)acetamide]
< 10000	< 1000	< 10	CC(=O)Nc1cn2c(C)c(-c3cnc(N)c(C(F)(F)F)c3)ccc2n1 [Example 194, N-(6-(6-amino-5-(trifluoromethyl)pyridin-3-yl)-5-methylimidazo[1,2-a]pyridin-2-yl)acetamide]
< 1000	< 1000	< 10	CC(=O)Nc1cn2cc(-c3cnc(N)c(C=O)c3)ccc2n1 [Example 195, N-(6-(6-amino-5-formylpyridin-3-yl)imidazo[1,2-a]pyridin-2-yl)acetamide]
< 1000	< 1000	< 10	COCCOc1nc(-c2ccc3nc(NC(=O)COC)cn3c2)cnc1N [Example 196, N-(6-(5-amino-6-(2-methoxyethoxy)pyrazin-2-yl)imidazo[1,2-a]pyridin-2-yl)-2-methoxyacetamide]
< 1000	< 1000	< 10	CC(=O)Nc1cn2cc(-c3cnc(N)c(/C=N/N(C)C)c3)ccc2n1 [Example 204, (E)-N-(6-(6-amino-5-((2,2-dimethylhy-drazono)methyl)pyridin-3-yl)imidazo[1,2-a]pyridin-2-yl)acetamide]
< 1000	< 1000	< 10	Nc1ncc(-c2ccc3nc(NC(=O)CCO)cn3c2)cc1C(F)(F)F [Example 205, N-(6-(6-amino-5-(trifluoromethyl)pyridin-3-yl)imidazo[1,2-a]pyridin-2-yl)-3-hydroxypropanamide]
< 1000	< 1000	< 10	CCN1CCN(CCCC(=O)Nc2cn3cc(-c4cnc(N)c(C(F)(F)F)c4)ccc3n2)CC1 [Example 206, N-(6-(6-amino-5-(trifluoromethyl)pyridin-3-yl)imidazo[1,2-a]pyridin-2-yl)-4-(4-ethylpiperazin-1-yl)butanamide]
